Results published in patent US20060046982A1, “Orthomolecular medical use of L-citrulline for capillary endothelial protection and adjacent cell protection in neurodegenerative disease” (priority 2004, published 2006).

Key:
[1] = tested on: Human plasma Cohn fraction 1V-1 protein; test: Turbidimetric test of protein insolubility induced by Fenton-like reaction (ferrous sulfate + H2O2), nephelometer; type: biochemical; details: amino acid at 400 microMol/L; 100 microMol/L ferrous sulfate + 40 microMol/L H2O2; pH 5.7-5.8; 37° Celsius, 30 minutes
Method: Human plasma Cohn fraction 1V-1 protein solutions (predominately alpha glycoglobulins, rich in lipid—obtained from Sigma Chemical Co.) of 40 mg/dl in saline solutions (140 NaCl mMol/L) were employed at existing pHs of 5.7-5.8 without additional confounding non-protein buffer. A nephelometer measured the intensity of reflected Tydall light. Developed turbidities were measured to quantify the insolubities of the dissolved proteins that were induced by introducing 100 microMol/L of ferrous sulfate and 40 microMol/L of H2O2 with incubations at 37° Celsius for 30 minutes. Insolubilities were standardized as the percent of maximal possible induced turbidities by comparison to similar protein solutions after mixing with the protein-precipitating agent sulfosalicylic acid at 1.5 g/dL.

[2] = Case report: person taking L-citrulline capsules daily for 8 years; details: donor one; long-term L-citrulline intake

Structure (SMILES)	mean inhibition of the insolubilities induced by the Fenton-like reactions [1]	Fasting blood glucose [2]	Hematocrit [2] [%]	blood hemoglobin [2] [g/dL]	total leucocyte count [2]
NC(=O)CC[C@H](N)C(=O)O [L-glutamine]	did not inhibit				
NC(=O)NCCC[C@H](N)C(=O)O [L-citrulline]	did not inhibit	within the normal range	38.5	13.6	6.800 /mcL
N[C@@H](Cc1c[nH]cn1)C(=O)O [L-histidine free base, L-histidine]	52.6%				
